Results from publication PMC12195956 (Molecules, 2025).
In brackets after ≈: the same amount, converted by molar mass. Read-outs that look alike come from different tables or passages of the source. Blank lines part the entries; values can stand above or below the compound they belong to.

Experiments:
Propionibacterium = assay: Antibacterial activity, zone of inhibition; format: cell-based; details: 24 h incubation
Procedure: Nutrient Agar (NA-Himedia, HiMedia Laboratories Pvt. Ltd., Mumbai, India) was prepared by dissolving 28.0 g in 1000 mL distilled water, sterilized at 121 °C for 15 min, and poured into sterile Petri plates. Propionibacterium was used for microbial assays. A 24 h pure culture was prepared by suspending the microorganisms in saline solution, streaking onto culture slants, and incubating at 37 °C. Standard solutions, including Clindamycin (25 mg/mL), were prepared in sterile water and stored under refrigeration. Plates were prepared using the pour plate method by pouring melted agar into sterile plates and allowing its solidification before use.
A sterile, non-toxic cotton swab was dipped in the standardized inoculums (turbidity was adjusted to achieve confluent growth on the Petri plate), and the entire plate’s agar surface was streaked with the swab three times, turning the plate at a 60-degree angle between streaking. The streaked inoculums were then allowed to dry for 5–15 min with the lid on. Then, using sterile well punches, a bore was punched on the prepared plates (8 mm). With the assistance of a sterile micropipette, a 10 μL dosage of produced microemulsion and standard medication Clindamycin were injected into each bore in an aseptic environment. Plates were maintained at room temperature for 30 min before being incubated for 24 h at 37 °C. The diameter of the inhibitory zones was measured using a scale in mm.
The antibacterial potential of test compounds was assessed using the mean diameter of the zone of inhibition around the disc in millimeters. The zones of inhibition of the studied microorganisms by the substances were determined on a millimeter scale.

[1] = test system: L929 (Mouse Connective Cell Line); assay: MTT assay (antipsoriatic activity); format: cell-based
Procedure: The L929 mouse connective tissue cell line was received from the National Center for Cell Sciences (NCCS), Pune, India and grown in DMEM media containing 10% fetal bovine serum. The cells were kept at 37 °C in a 5% CO2 incubator and seeded at a density of 1 × 10⁴ cells/mL in culture media for 24 h. To conduct the experiment, 70 μL of cell suspension (1 × 10^4 cells/well) were added to 100 μL of culture media on a 96-well tissue culture plate. Sample was added to wells at varying doses (25, 50, and 100 μg/mL), while control wells contained 0.2% DMSO in PBS with cell culture. All experiments were performed in triplicate to ensure reliability and reproducibility of the results. Control wells were utilized to evaluate cell viability and calculate the percentage of cells that survived after incubation. The cultures were incubated at 37 °C with 5% CO2 for 24 h in a CO2 incubator (Thermo Scientific BB150, Thermo Fisher Scientific Inc., Waltham, MA, USA). After incubation, the media were removed and 20 μL of MTT reagent (5 mg/mL in PBS) was added. The plates were incubated for a further 4 h at 37 °C to allow live cells to convert the MTT into formazan crystals, which were then viewed under a microscope. After removing the medium, 200 μL of DMSO was added and incubated at 37 °C for 10 min while protected from light with aluminum foil. Each sample’s absorbance was measured at 570 nm using an ELISA microplate reader (Benesphera E21, Avantor Performance Materials India Private Limited, Gurgoan, India), with triplicates tested for accuracy.

[2] = Solubility screening of anthralin in oils, surfactants and co-surfactants; format: physicochemical; details: read-out: drug solubility
Procedure: Excess drug was dissolved in 1 mL of the aforementioned oils, surfactant, and co-surfactant, and vortexed continuously for 48 h. The samples were centrifuged at 5000–7000 rpm for 15 min after which they were left to rest for 72 h.

[3] = pKa and percentage ionization (Henderson–Hasselbalch equation); format: physicochemical
Text: One study reported an average pH of 5.2 in psoriatic skin, compared to 5.6 in healthy skin [36]. […] The optimal pH range for topical application is 6–7 to balance efficacy and skin irritation.

[4] = previously reported value ref 37; cited from earlier work

Structure (SMILES): CCC[C@@H]1C[C@@H](C(=O)N[C@@H]([C@H]2O[C@H](SC)[C@H](O)[C@@H](O)[C@H]2O)[C@H](C)Cl)N(C)C1 [Clindamycin]
zone of inhibition at 25 µg/mL (Propionibacterium; 25 μg/mL): 11.3 ± 1.15 mm
zone of inhibition at 50 µg/mL (Propionibacterium; 50 μg/mL): 13.7 ± 1.15 mm
zone of inhibition at 100 µg/mL (Propionibacterium; 100 μg/mL): 20.7 ± 1.15 mm

Structure (SMILES): O=c1[nH]cc(F)c(=O)[nH]1 [Batch 5-FU, 5-flurouracil]
Cell Viability % ([1]; L929, 25 µg/mL, 24 h): 33.90%
Inhibition % ([1]; L929, 25 µg/mL, 24 h): 66.10%
Cell Viability % ([1]; L929, 50 µg/mL, 24 h): 29.87%
Inhibition % ([1]; L929, 50 µg/mL, 24 h): 70.13%
Cell Viability % ([1]; L929, 100 µg/mL, 24 h): 21.00%
Inhibition % ([1]; L929, 100 µg/mL, 24 h): 79.00%

solubility at 48 h ([2]; PEG 400, 27 °C, organic solvent or mixture, thermodynamic from solid, in PEG 400, room temperature (27 ± 1 °C)): 14.1 mg/mL (≈ 62.2 mM)
solubility at 48 h ([2]; Span 20, thermodynamic from solid, in Span 20): 4.23 mg/mL (≈ 18.7 mM)
solubility at 48 h ([2]; Transcutol-P, organic solvent or mixture, thermodynamic from solid, in Transcutol-P): 15.6 mg/mL (≈ 68.8 mM)
solubility at 48 h ([2]; Tween 20, thermodynamic from solid, in Tween 20): 11.6 mg/mL (≈ 51.2 mM)
solubility at 48 h ([2]; Tween 80, 27 °C, thermodynamic from solid, in Tween 80, room temperature (27 ± 1 °C)): 56 mg/mL (≈ 248 mM)
solubility at 48 h ([2]; castor oil, oil or lipid, thermodynamic from solid, in castor oil): 23.9 mg/mL (≈ 106 mM)
solubility at 48 h ([2]; ethanol, organic solvent or mixture, thermodynamic from solid, in ethanol): 9.23 mg/mL (≈ 40.8 mM)
solubility at 48 h ([2]; oleic acid, 27 °C, oil or lipid, thermodynamic from solid, in oleic acid, room temperature (27 ± 1 °C)): 44.2 mg/mL (≈ 196 mM)
solubility at 48 h ([2]; olive oil, oil or lipid, thermodynamic from solid, in olive oil): 28.2 mg/mL (≈ 125 mM)
percentage ionization ([3]; pH 5.2 (psoriatic skin)): 0.01%
percentage ionization ([3]; pH 5.6 (healthy skin)): 0.03%
Structure (SMILES): O=C1c2c(O)cccc2Cc2cccc(O)c21 [Anthralin]
Inhibition % ([1]; L929, 100 µg/mL, 24 h): 60.345%
inhibition at 25 µg/mL ([1]; Mus musculus, L929, 24 h, L929, 25 µg/mL, 24 h): 47.9%
inhibition at 50 µg/mL ([1]; Mus musculus, L929, 24 h, L929, 50 µg/mL, 24 h): 53%
inhibition at 100 µg/mL ([1]; Mus musculus, L929, 24 h, L929, 100 µg/mL, 24 h): 60.3%
viability at 25 µg/mL ([1]; Mus musculus, L929, 25 µg/mL, 24 h): 52.1%
viability at 50 µg/mL ([1]; Mus musculus, L929, 50 µg/mL, 24 h): 47%
viability at 100 µg/mL ([1]; Mus musculus, L929, 100 µg/mL, 24 h): 39.7%
IC50 ([1]; Mus musculus, L929, from linear regression of % inhibition vs. concentration): 36.2 µg/mL (≈ 0.16 mM)
pKa [4]: 9.06
